What was measured:
[1] = biological target: Myosin light chain kinase, smooth muscle (Homo sapiens, UniProt Q15746); assay: Selectivity interaction (LanthaScreen Eu Kinase Binding Assay) EUB0001632a MYLK; conditions: at 10 µM
[2] = biological target: T1, Serine/threonine-protein kinase Sgk3 (Homo sapiens) (UniProt Q96BR1); assay: Selectivity interaction (KinomeScan (DiscoverX)) EUB0000666a SGK3; conditions: at 10 µM
T1 sequence (whole entry): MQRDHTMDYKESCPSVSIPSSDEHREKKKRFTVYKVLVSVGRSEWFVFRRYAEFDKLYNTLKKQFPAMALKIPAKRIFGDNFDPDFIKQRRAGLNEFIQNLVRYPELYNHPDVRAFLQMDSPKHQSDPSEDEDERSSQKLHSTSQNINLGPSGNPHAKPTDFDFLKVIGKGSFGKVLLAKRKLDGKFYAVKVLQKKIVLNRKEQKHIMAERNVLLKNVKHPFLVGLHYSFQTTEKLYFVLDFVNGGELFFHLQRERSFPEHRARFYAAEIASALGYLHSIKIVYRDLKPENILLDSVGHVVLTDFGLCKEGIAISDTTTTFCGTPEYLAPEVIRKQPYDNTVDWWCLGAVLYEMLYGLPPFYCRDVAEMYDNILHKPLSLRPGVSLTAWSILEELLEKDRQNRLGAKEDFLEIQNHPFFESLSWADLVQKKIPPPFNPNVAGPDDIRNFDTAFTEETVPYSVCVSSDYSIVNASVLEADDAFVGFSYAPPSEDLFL

[3] = biological target: T2, Dual specificity tyrosine-phosphorylation-regulated kinase 4 (Homo sapiens) (UniProt Q9NR20); assay: Selectivity interaction (ProQinase) EUB0000171b DYRK4
T2 sequence (whole entry): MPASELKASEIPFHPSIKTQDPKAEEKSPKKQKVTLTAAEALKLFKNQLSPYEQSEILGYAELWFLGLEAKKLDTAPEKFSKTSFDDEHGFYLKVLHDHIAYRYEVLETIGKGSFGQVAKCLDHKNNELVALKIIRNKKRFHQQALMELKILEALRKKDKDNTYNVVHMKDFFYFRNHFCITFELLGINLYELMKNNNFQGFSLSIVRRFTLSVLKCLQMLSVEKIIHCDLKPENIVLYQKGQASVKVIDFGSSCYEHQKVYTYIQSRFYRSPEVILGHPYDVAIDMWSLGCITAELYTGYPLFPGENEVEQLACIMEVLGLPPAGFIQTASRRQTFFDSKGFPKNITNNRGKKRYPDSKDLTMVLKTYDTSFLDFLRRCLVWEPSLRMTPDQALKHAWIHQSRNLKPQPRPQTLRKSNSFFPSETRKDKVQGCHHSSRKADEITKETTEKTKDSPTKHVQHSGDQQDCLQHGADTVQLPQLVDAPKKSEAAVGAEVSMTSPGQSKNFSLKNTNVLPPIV

SRSF protein kinase 1 = SRSF protein kinase 1 (Homo sapiens, UniProt Q96SB4); assay: Selectivity interaction (Kinase panel (literature)) EUB0001199aCl SRPK1; conditions: at 1 µM
Sequence of SRSF protein kinase 1 (Q96SB4 whole entry): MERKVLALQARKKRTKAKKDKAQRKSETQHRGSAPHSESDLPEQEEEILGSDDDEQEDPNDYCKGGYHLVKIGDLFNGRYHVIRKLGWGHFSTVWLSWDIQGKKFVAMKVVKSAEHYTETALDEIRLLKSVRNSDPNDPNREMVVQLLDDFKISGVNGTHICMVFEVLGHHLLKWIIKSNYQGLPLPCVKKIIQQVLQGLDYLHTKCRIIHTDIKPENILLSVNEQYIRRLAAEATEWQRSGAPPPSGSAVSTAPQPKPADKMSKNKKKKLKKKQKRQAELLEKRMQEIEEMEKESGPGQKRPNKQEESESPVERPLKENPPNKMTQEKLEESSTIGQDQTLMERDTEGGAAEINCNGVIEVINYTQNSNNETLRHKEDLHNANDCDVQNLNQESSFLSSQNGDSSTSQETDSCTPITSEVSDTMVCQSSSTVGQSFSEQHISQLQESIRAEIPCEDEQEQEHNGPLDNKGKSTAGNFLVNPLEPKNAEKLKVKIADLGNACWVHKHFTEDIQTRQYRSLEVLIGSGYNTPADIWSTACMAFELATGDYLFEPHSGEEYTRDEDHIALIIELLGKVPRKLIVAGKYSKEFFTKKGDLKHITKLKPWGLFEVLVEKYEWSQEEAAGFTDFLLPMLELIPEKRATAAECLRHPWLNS

[4] = biological target: T3, Ephrin type-A receptor 8 (Homo sapiens) (UniProt P29322); assay: Selectivity interaction (Kinase panel (Invitrogen)) EUB0000639a EPHA8; conditions: at 200 nM
T3 sequence (whole entry): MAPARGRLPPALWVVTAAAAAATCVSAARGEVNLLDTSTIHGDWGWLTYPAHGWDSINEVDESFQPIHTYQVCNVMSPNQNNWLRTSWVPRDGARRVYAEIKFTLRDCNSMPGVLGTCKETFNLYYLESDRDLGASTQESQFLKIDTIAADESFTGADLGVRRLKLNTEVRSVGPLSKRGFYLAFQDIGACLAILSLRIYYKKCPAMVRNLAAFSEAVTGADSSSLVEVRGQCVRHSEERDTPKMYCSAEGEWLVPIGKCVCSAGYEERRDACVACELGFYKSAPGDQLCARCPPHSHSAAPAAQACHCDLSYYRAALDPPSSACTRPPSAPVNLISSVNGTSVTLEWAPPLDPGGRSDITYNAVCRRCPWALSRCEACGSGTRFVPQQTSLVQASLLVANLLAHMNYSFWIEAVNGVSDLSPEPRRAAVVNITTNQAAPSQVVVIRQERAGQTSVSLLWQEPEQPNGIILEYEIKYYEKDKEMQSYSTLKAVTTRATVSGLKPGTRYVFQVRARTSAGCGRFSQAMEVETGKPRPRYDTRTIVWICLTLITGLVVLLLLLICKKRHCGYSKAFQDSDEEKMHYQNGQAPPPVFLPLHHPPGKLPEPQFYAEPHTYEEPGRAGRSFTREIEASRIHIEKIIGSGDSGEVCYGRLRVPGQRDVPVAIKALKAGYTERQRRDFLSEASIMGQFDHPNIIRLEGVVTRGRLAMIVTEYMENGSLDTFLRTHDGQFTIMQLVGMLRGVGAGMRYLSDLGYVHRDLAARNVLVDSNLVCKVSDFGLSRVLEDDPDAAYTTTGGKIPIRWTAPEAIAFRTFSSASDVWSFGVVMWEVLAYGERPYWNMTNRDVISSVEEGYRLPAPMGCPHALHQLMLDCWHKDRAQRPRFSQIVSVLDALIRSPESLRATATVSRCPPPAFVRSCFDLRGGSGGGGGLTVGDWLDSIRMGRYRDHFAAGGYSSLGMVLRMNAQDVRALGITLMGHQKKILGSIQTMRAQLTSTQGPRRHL

[5] = biological target: T4, Serine/threonine-protein kinase TBK1 (Homo sapiens) (UniProt Q9UHD2); assay: Selectivity interaction (ActivX KiNativ screen (kinase selectivity in THP-1 cell lysates)) EUB0000639a TBK1; type: subcellular; conditions: lysate, at 0.04 µM
T4 sequence (whole entry): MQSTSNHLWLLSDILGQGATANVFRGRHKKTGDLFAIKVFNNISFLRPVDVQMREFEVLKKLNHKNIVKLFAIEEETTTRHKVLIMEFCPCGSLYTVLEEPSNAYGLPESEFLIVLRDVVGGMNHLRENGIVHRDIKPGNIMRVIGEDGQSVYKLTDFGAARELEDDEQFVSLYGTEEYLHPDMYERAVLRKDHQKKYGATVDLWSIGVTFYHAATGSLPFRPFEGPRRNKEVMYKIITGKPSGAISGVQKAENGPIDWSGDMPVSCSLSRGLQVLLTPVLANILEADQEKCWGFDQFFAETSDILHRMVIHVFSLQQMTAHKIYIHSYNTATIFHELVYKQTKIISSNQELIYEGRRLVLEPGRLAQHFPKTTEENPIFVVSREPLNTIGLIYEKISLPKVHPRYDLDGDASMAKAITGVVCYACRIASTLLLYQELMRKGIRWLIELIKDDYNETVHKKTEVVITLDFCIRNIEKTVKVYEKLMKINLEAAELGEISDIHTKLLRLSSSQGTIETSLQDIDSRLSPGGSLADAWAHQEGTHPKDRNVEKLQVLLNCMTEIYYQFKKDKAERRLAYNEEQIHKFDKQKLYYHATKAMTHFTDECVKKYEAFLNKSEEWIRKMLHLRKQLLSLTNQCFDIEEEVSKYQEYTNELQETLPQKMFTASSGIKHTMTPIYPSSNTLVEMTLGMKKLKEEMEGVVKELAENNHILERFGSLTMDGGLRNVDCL

Sequence of Myosin light chain kinase, smooth muscle (Q15746 whole entry): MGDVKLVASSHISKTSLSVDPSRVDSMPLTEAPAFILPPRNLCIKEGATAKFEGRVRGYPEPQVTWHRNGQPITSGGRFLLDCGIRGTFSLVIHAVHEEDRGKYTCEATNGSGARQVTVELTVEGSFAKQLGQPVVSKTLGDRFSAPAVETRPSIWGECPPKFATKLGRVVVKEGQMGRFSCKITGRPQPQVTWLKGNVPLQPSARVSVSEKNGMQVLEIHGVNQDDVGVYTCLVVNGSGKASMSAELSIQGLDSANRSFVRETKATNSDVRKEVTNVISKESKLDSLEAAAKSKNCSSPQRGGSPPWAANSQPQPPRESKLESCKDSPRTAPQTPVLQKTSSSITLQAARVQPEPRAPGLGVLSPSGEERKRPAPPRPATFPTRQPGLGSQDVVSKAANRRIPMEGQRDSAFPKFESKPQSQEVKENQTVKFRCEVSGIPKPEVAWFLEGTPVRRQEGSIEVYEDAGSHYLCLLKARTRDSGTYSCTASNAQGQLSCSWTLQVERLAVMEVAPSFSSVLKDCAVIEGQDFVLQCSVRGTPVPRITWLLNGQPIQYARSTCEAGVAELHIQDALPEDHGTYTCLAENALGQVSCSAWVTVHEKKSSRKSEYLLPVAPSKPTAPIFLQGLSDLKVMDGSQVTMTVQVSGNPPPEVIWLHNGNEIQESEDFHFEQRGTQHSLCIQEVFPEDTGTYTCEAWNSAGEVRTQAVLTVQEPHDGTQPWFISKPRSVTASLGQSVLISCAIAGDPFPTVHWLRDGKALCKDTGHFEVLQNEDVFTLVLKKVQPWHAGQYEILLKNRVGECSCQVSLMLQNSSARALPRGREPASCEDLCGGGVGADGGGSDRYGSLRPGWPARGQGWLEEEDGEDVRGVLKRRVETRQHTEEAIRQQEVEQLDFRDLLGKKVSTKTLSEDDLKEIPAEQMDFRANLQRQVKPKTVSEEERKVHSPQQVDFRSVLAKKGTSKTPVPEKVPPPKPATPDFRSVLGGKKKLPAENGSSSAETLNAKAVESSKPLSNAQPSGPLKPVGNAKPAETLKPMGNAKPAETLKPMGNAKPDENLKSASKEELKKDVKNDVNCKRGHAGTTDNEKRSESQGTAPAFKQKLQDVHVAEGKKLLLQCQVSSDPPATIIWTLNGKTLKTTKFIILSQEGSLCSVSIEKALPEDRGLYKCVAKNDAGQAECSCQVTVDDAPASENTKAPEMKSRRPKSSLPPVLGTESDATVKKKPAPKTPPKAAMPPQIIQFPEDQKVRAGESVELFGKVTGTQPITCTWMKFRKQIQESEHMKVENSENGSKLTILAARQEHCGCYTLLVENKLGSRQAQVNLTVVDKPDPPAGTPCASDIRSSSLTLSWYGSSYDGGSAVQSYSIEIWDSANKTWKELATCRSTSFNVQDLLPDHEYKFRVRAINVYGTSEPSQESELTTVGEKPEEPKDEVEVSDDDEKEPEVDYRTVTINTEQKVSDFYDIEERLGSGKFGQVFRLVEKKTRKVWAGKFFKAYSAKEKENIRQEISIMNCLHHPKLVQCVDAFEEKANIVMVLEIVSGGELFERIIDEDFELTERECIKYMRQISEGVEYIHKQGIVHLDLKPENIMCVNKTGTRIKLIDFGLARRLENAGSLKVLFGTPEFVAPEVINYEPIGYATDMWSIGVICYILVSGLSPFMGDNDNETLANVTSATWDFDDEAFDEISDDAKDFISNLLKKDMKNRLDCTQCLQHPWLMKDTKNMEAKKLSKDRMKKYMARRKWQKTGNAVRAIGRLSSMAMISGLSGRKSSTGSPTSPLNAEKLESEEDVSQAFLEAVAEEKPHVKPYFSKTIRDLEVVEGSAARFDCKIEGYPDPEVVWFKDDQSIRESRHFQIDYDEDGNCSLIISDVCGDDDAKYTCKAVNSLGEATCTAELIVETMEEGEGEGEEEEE

Q: Cn1cc(-n2cnc3c(NCc4nc5cc(Cl)c(Cl)cc5[nH]4)nc(N4CCOCC4)nc32)cn1 was tested. Which % of inhibition [1] did it give?
A: -1.03%

Q: Which % of control [2] does the source give for O=C(NOC[C@H](O)CO)c1ccc(F)c(F)c1Nc1ccc(I)cc1F here?
A: 89%

Q: C=CC(=O)Nc1cccc(C(=O)Nc2ccc(Nc3cc(-c4[nH]c(SC)nc4C)ccn3)cc2)c1 was tested. Which % of control ([3]; at 1 µM) did it give?
A: 90%

Q: And the % of control ([3]; at 5 µM)?
A: 84%

Q: CN1Cc2nccc(-c3cn(C)nc3-c3ccc(F)cc3)c2C1=O was tested. Which % of inhibition (SRSF protein kinase 1) did it give?
A: 8%

Q: Which % of inhibition [4] does the source give for CC[C@@H]1[C@H](F)C(=O)N[C@@H]1COc1nccc2cc(C(N)=O)c(OC)cc12 [ZIMLOVISERTIB] here?
A: -0.726%

Q: And the % of inhibition [5]?
A: -7.8%
